Measured values: ChEMBL document CHEMBL1142355, “Antimalarial dual drugs based on potent inhibitors of glutathione reductase from Plasmodium falciparum” (J Med Chem, 2008)

Assays:
Plasmodium falciparum [1] = assay: Antiparasitic activity against chloroquine-sensitive Plasmodium falciparum 3D7; format: functional, organism-based
Plasmodium falciparum [2] = assay: Antiparasitic activity against chloroquine-resistant Plasmodium falciparum K1; format: functional, organism-based
Plasmodium falciparum [3] = assay: Relative IC50 against Plasmodium falciparum K1 and 3D7; format: functional
KB = assay: Cytotoxicity against human KB cells by alamar blue assay; format: functional, cell-based; conditions: for CC50: read-out: TD50 (the source's name)
Plasmodium falciparum [4] = assay: microbe, parasite or virus in culture; conditions: 3 h
Description: Antiparasitic activity against chloroquine-sensitive Plasmodium falciparum by [3H]hypoxanthine incorporation

Plasmodium berghei [5] = assay: Reduced parasitemia in Plasmodium berghei ANKA infected BALB/c mice (Mus musculus) at 21 mg/kg intraperitoneal dose after 4 days; format: functional; set-up: scale not given: the % may be the effect or the level left
Plasmodium berghei [6] = assay: Antimalarial 95% clearance activity against Plasmodium berghei ANKA infected BALB/c mice (Mus musculus) at 21 mg/kg intraperitoneal dose after 4 days; format: functional
Plasmodium berghei [7] = assay: Antimalarial activity against Plasmodium berghei ANKA infected BALB/c mice (Mus musculus) at 21 mg/kg intraperitoneal dose after 4 days; format: functional; conditions: ip, 96 h
Plasmodium berghei [8] = assay: Reduced parasitemia in Plasmodium berghei ANKA infected BALB/c mice (Mus musculus) at 30 mg/kg intraperitoneal dose after 4 days; format: functional; set-up: scale not given: the % may be the effect or the level left
Plasmodium berghei [9] = assay: Antimalarial 95% clearance activity against Plasmodium berghei ANKA infected BALB/c mice (Mus musculus) at 30 mg/kg intraperitoneal dose after 4 days; format: functional
Plasmodium berghei [10] = assay: Antimalarial activity against Plasmodium berghei ANKA infected BALB/c mice (Mus musculus) at 30 mg/kg intraperitoneal dose after 4 days; format: functional; conditions: ip, 96 h
Plasmodium berghei [11] = assay: Reduced parasitemia in Plasmodium berghei ANKA infected BALB/c mice (Mus musculus) at 10 mg/kg peroral dose after 4 days; format: functional; set-up: scale not given: the % may be the effect or the level left; conditions: route oral
Plasmodium berghei [12] = assay: Antimalarial activity against Plasmodium berghei ANKA infected BALB/c mice (Mus musculus) at 10 mg/kg peroral dose after 4 days; format: functional; conditions: 96 h, route oral

SMILES | IC50 (Plasmodium falciparum [1]) [nM] | IC50 (Plasmodium falciparum [2]) [nM] | Ratio IC50 (Plasmodium falciparum [3]) | CC50 (KB) [nM] | also measured
CC(C)(C)NCCNc1ccnc2cc(Cl)ccc12 | 21.2 | 128 | 6 | 143000 | –
CCN(CC)Cc1cc(Nc2ccnc3cc(Cl)ccc23)ccc1O.Cl | – | 6.4 | 0.6 | – | IC50 (Plasmodium falciparum [4]): 9.5 nM
COc1c(C)c(CN(CCNc2ccnc3cc(Cl)ccc23)C(C)C)c(OC)c2ccccc12 | 83.7 | 105 | – | 85800 | –
COc1cc(CN(CCNc2ccnc3cc(Cl)ccc23)CC(C)(C)C)c(OC)c2ccccc12 | 237 | 154 | – | 8800 | –
CCN(CC)Cc1cc(Nc2ccnc3cc(Cl)ccc23)ccc1OCc1c(C(F)(F)F)c(OC)c2ccccc2c1OC | 32 | 32 | 1 | 15000 | –
COc1c(C)c(CCCCCC(=O)N(CCNc2ccnc3cc(Cl)ccc23)C(C)C)c(OC)c2ccccc12 | 52.8 | 302 | 5.7 | 6900 | –
COc1cc(CNCCNc2ccnc3cc(Cl)ccc23)c(OC)c2ccccc12 | 23.7 | 28.4 | – | 3800 | –
Clc1ccc2c(N3CC3)ccnc2c1 | 16000 | 39200 | 2.4 | 102000 | –
COc1c(CNCCNc2ccnc3cc(Cl)ccc23)c(C(F)(F)F)c(OC)c2ccccc12 | 128 | 16 | – | 28500 | –
COc1cc(CN(CCNc2ccnc3cc(Cl)ccc23)CC(C)C)c(OC)c2ccccc12 | 146 | 188 | – | 43800 | –
CC1=C(CCCCCC(=O)NCCNc2ccnc3cc(Cl)ccc23)C(=O)c2ccccc2C1=O | 184 | 367 | 2 | 22200 | –
COc1c(C)c(CN(CCNc2ccnc3cc(Cl)ccc23)CC(C)C)c(OC)c2ccccc12 | 183 | 40.6 | – | 30600 | –
COc1cc(CN(CCNc2ccnc3cc(Cl)ccc23)C(C)C)c(OC)c2ccccc12 | 517 | 345 | – | – | IC50 (KB): 67000 nM
COc1c(CN(CCNc2ccnc3cc(Cl)ccc23)CC(C)C)c(C(F)(F)F)c(OC)c2ccccc12 | 162 | 198 | – | 11900 | –
COc1c(CN(CCNc2ccnc3cc(Cl)ccc23)C(C)C)c(C(F)(F)F)c(OC)c2ccccc12 | 184 | 299 | – | 35400 | –
COc1c(C)c(CNCCNc2ccnc3cc(Cl)ccc23)c(OC)c2ccccc12 | 229 | 22.9 | – | 5100 | –
CC(C)(C)CNCCNc1ccnc2cc(Cl)ccc12 | 20.6 | 6.8 | 0.3 | 62100 | –
COc1c(C)c(Cc2ccc(CC(=O)NCCNc3ccnc4cc(Cl)ccc34)cc2)c(OC)c2ccccc12 | 289 | 505 | 1.7 | 11500 | –
COc1c(C)c(Cc2ccc(CC(=O)N(CCNc3ccnc4cc(Cl)ccc34)C(C)C)cc2)c(OC)c2ccccc12 | 319 | 268 | 0.8 | 1700 | –
Clc1ccc2c(NCCNCC3CC3)ccnc2c1 | 2.7 | 145 | 53.7 | 71900 | –
CC(C)NCCCNc1ccnc2cc(Cl)ccc12 | 3.6 | 144 | 40 | 47900 | –

SMILES | IC50 (Plasmodium falciparum [1]) [nM] | IC50 (Plasmodium falciparum [2]) [nM] | Ratio IC50 (Plasmodium falciparum [3]) | CC50 (KB) [nM] | also measured
CC(C)NCCNc1ccnc2cc(Cl)ccc12 | 10.2 | 96.7 | 9.5 | 89800 | –
COc1c(C)c(CN(CCNc2ccnc3cc(Cl)ccc23)CC(C)(C)C)c(OC)c2ccccc12 | 156 | 134 | – | 10600 | –
CC(C)(C)NC(=O)CNc1ccnc2cc(Cl)ccc12 | 994 | 1440 | 1.4 | 194000 | –
CC1=C(CCCCCC(=O)N(CCNc2ccnc3cc(Cl)ccc23)C(C)C)C(=O)c2ccccc2C1=O | 7.5 | 9.4 | 1.1 | 37000 | Activity (Plasmodium berghei [5]): 12.5%; Activity (Plasmodium berghei [6]): 2.65%; inhibition in vivo at 21 mg/kg (Plasmodium berghei [7]): 18.2%
CC(=O)Nc1ccc(O)c(CN(CCCNc2ccnc3cc(Cl)ccc23)C(C)C)c1 | 22.7 | 318 | – | 180000 | –
CC(C)CNCCNc1ccnc2cc(Cl)ccc12 | 22.8 | 72 | 3.1 | 22500 | –
COc1c(COc2ccc(NC(C)=O)cc2)c(C(F)(F)F)c(OC)c2ccccc12 | 6440 | 15700 | 2.4 | > 715000 | –
CC1=C(Cc2ccc(CC(=O)N(CCNc3ccnc4cc(Cl)ccc34)C(C)C)cc2)C(=O)c2ccccc2C1=O | 12.4 | 5.3 | 0.4 | 318000 | –
COc1c(CN(CCNc2ccnc3cc(Cl)ccc23)CC(C)(C)C)c(C(F)(F)F)c(OC)c2ccccc12 | 146 | 116 | – | 12000 | –
CC(C)(C)CNCCNc1ccnc2cc(Cl)ccc12.Cl | – | – | – | – | Activity (Plasmodium berghei [8]): 0.86%; Activity (Plasmodium berghei [9]): 0.31%; inhibition in vivo at 30 mg/kg (Plasmodium berghei [10]): 94.4%
COc1c(CNCCNc2ccnc3cc(Cl)ccc23)c(C(F)(F)F)c(OC)c2ccccc12.Cl | – | – | – | – | Activity (Plasmodium berghei [8]): 12.48%; Activity (Plasmodium berghei [9]): 2.82%; inhibition in vivo at 30 mg/kg (Plasmodium berghei [10]): 18.3%
CO[C@H]1O[C@@H]2O[C@@]3(C)CC[C@H]4[C@H](C)CC[C@@H]([C@H]1C)[C@@]24OO3 | – | – | – | – | IC50 (Plasmodium falciparum [4]): 2.8 nM
NCCNc1ccnc2cc(Cl)ccc12 | 4.5 | 1800 | 400 | 49600 | –
CC(=O)Nc1ccc(O)cc1 [ACETAMINOPHEN] | > 198000 | 86700 | <0.4 | – | –
C[C@@H]1CC[C@H]2[C@@H](C)C(=O)O[C@@H]3O[C@@]4(C)CC[C@@H]1[C@]32OO4 [ARTEMISININ] | – | – | – | – | IC50 (Plasmodium falciparum [4]): 4.5 nM
CCN(CC)CCCC(C)Nc1ccnc2cc(Cl)ccc12 (stereo unspecified) [CHLOROQUINE] | – | – | – | 127000 | Activity (Plasmodium berghei [11]): 0.13%; inhibition in vivo at 10 mg/kg (Plasmodium berghei [12]): 99.2%
O[C@@H](c1cc(C(F)(F)F)nc2c(C(F)(F)F)cccc12)[C@H]1CCCCN1 [MEFLOQUINE] | – | – | – | – | IC50 (Plasmodium falciparum [4]): 4.85 nM
CN(C)c1ccc2nc3ccc(N(C)C)cc3[s+]c2c1 [METHYLENE BLUE ANHYDROUS] | – | – | – | – | IC50 (Plasmodium falciparum [4]): 5.4 nM
Clc1ccc2c(N3CCN(CCCN4CCN(c5ccnc6cc(Cl)ccc56)CC4)CC3)ccnc2c1 [PIPERAQUINE] | – | – | – | – | IC50 (Plasmodium falciparum [4]): 14.6 nM
COc1cc([C@@H]2c3cc4c(cc3[C@H](O)[C@H]3COC(=O)[C@H]23)OCO4)cc(OC)c1OC [PODOFILOX] | – | – | – | 49600 | –
